Each block holds one compound with its values, some of them ahead of it.
Experiments:
[1] = target: T1, Tyrosine-protein kinase ITK/TSK (Homo sapiens, UniProt Q08881); experiment: Inhibition of human ITK
T1 sequence (Q08881 whole entry): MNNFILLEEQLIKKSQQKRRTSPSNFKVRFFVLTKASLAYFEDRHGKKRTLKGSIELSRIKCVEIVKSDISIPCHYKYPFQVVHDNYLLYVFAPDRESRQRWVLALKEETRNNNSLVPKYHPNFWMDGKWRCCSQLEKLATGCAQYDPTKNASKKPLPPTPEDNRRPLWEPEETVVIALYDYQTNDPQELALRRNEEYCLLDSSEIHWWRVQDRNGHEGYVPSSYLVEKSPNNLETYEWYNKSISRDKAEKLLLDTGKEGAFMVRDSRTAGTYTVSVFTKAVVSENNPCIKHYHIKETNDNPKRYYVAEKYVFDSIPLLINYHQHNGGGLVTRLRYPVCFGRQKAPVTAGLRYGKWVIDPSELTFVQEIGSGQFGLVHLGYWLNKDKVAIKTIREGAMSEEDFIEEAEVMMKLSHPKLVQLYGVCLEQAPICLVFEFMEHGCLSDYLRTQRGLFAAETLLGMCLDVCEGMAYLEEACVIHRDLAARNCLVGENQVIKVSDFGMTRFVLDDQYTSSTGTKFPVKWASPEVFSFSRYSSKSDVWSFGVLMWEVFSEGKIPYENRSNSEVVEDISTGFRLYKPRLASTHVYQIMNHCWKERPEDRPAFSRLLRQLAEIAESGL

[2] = system: Lung; experiment: Drug level in rat lung at 2.3 mg/kg dosed via inhalation measured post cell suspension; format: ADME, organism-based; set-up: dose 2.3 mg/kg; details: in vivo, inhaled_or_intranasal, read-out: Drug uptake
[3] = target: T2, Tyrosine-protein kinase ITK/TSK (Homo sapiens) (UniProt Q08881); experiment: Inhibition of human ITK assessed as ratio of Kinact to Ki
T2 sequence (whole entry): T1 sequence (Q08881 whole entry)

[4] = system: Lung; experiment: Drug level in rat lung at 2.3 mg/kg dosed via inhalation measured post perfusion; format: ADME, organism-based; set-up: dose 2.3 mg/kg; details: in vivo, inhaled_or_intranasal, read-out: Drug uptake
[5] = target: Tyrosine-protein kinase BTK (Homo sapiens, UniProt Q06187); experiment: Inhibition of BTK (unknown origin) using ATP and Y5 Sox15 substrate mix incubated for 30 mins by fluorescence based assay
[6] = Inhibition of human PDE isoforms
[7] = target: cAMP and cAMP-inhibited cGMP 3',5'-cyclic phosphodiesterase 10A (Homo sapiens, UniProt Q9Y233); experiment: Inhibition of human PDE10A
[8] = system: Rattus norvegicus; experiment: Induction of prolongation of micturition interval in orally dosed Sprague-Dawley rat model of 8-OH-DPAT induced overactive bladder by cystometric study; format: functional; details: po, read-out: MED
[9] = system: Rattus norvegicus; experiment: Binding affinity to 5HT1A receptor in Sprague-Dawley rat at 0.3 to 10 mg/kg, po after 2 to 8 hrs by PET imaging method; format: functional, organism-based; set-up: route oral

Chain of Tyrosine-protein kinase BTK (Q06187 whole entry, canonical isoform): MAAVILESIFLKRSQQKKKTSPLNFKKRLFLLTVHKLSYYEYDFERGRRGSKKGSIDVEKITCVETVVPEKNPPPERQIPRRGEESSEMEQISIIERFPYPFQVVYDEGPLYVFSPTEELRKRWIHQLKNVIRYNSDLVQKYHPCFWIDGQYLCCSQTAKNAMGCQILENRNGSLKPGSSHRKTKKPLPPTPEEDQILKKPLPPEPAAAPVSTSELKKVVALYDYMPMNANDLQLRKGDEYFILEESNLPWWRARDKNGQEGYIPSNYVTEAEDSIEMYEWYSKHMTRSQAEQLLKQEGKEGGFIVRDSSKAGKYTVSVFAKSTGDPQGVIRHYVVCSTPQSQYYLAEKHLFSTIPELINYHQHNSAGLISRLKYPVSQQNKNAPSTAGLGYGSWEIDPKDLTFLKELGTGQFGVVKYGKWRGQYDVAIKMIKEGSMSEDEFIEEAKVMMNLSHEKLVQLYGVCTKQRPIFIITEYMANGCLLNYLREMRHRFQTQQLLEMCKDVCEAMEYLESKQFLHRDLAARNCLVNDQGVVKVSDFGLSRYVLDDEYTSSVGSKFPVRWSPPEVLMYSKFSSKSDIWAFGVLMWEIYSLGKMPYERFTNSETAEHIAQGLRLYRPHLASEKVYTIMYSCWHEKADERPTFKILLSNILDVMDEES
Chain of cAMP and cAMP-inhibited cGMP 3',5'-cyclic phosphodiesterase 10A (Q9Y233 whole entry): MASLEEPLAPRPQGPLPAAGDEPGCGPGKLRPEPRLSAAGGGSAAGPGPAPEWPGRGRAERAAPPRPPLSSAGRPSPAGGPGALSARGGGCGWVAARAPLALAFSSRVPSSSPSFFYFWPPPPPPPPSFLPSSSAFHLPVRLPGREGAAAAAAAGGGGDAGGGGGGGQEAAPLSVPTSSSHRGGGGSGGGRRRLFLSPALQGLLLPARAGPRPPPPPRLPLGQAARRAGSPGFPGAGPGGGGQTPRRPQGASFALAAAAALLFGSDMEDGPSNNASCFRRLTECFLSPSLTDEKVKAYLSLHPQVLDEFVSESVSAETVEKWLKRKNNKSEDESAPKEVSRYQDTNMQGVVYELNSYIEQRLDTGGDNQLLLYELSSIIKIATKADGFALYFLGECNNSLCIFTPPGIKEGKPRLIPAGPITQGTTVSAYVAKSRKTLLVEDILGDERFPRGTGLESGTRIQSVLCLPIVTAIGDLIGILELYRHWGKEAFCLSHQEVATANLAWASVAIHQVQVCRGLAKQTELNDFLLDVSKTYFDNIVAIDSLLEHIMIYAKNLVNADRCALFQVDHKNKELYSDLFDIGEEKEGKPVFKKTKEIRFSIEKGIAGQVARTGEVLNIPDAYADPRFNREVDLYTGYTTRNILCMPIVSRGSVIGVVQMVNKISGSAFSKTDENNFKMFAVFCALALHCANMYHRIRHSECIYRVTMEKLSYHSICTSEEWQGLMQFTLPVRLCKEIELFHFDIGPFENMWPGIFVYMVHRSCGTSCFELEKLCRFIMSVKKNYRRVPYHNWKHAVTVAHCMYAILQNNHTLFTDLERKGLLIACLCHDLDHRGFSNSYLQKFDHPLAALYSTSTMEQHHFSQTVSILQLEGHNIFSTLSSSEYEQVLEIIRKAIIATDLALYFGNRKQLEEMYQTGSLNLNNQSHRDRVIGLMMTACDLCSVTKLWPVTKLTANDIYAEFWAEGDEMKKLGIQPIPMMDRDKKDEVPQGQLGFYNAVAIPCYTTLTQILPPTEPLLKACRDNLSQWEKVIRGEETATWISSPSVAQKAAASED

IC50 [1]: 5 nM
concentration [2]: 0.008 µM
Ratio [3]: 520000 M⁻¹ s⁻¹
concentration [4]: 6 µM
Structure (SMILES): C=CC(=O)N1CC[C@H](Nc2cc(CN[C@@H](C)C(C)(C)C)cc(Nc3nc4cccnc4s3)n2)C1

IC50 [5]: 0.5 nM
Structure (SMILES): C=CC(=O)Nc1cccc(N(C)c2nc(Nc3cccc(OCCCN(C)C(=O)CCCC(=O)NCCCOCCOCCOCCCNC(=O)CCCC[C@H]4SC[C@H]5NC(=O)N[C@H]54)c3)ncc2C)c1

IC50 [6]: > 1000 nM
IC50 [7]: 0.06 nM
Structure (SMILES): Cc1nc2ccccc2nc1-c1cc2nc(N3CC[C@@H](F)C3)cc(N([11CH3])C3CCOCC3)n2n1

EC50 [9]: 5.4 nM
Structure (SMILES): CNC(=O)c1ccc2ccn(C3CCN(CCc4c(OC)ccc5c4OC(C)(C)CC5=O)CC3)c2c1.O=C(O)/C=C/C(=O)O
minimal effective dose [8]: 0.1 mg/kg

From ChEMBL document CHEMBL3397013, “Target engagement in lead generation” (Bioorg Med Chem Lett, 2015)
